Data published in PMC4303209, “A novel phosphatidylinositol 3-kinase (PI3K) inhibitor directs a potent FOXO-dependent, p53-independent cell cycle arrest phenotype characterized by the differential induction of a subset of FOXO-regulated genes” (Breast Cancer Research : BCR, 2014).

Tested on: MCF-7
Experiment: Cell cycle analysis by flow cytometry (propidium iodide)
Assay type: cell-based, human
Conditions: MCF7 and U2OS with siRNA knockdown; data not shown

SMILES: O=c1[nH]cc(F)c(=O)[nH]1 [5-fluorouracil]
- cell cycle arrest response (control): potent p53-dependent cell cycle arrest response
